US20060194821A1, “Compounds inhibiting the aggregation of superoxide dismutase-1” (The Brigham and women's Hospital, Inc., priority 2005, published 2006)
“Also recorded” adds a separate entry of the source.

Columns and labels:
Format in all cases: biochemical
[1] = system: SOD; assay: Testing of structural analogs for inhibition of SOD aggregation; settings: Example 2, compounds of FIG. 2
Procedure: (§1) Aggregation assays for screening were prepared by adding a stock solution of compound to a protein solution (final concentrations: 100 μM compound, 50 μM protein). Following a 15 minute preincubation period at 37° C., 5 mM EDTA was added to initiate aggregation. Aliquots were periodically removed and analyzed for the amount of SOD-1 dimer present. This value correlated in all cases with the appearance of oligomers by gel filtration on a Superdex 200™ (3.2/30) gel filtration column (Pharmacia). All chromatography was performed in TBS, pH 7.4 (20 mM Tris, 150 mM NaCl) on a Waters 2690 Alliance HPLC and monitored at 220 and 276 nm. […] Assays in the absence of EDTA were carried as described previously (16). For Apo-A4V experiments, buffers were treated with CHELEX (except those containing EDTA) and experiments were performed in plastic tubes to avoid introduction of contaminating zinc into the Apo-protein.
A structural analysis was performed on the 15 compounds found to be active in the assays described in Example 1 (see FIG. 1). […] Although most of the compounds tested were purchased commercially, two (1,2-di-[6-Mercapto-2H-[1,2,4]triazine-3,5-dione]ethane; and di-{5-[1H-pyrimidine-2,4-dione]methyl}thioether) were synthesized as described in Example 3.

[2] = molecular target: T1, A4V, a FALS-linked variant of SOD-1 (Homo sapiens, UniProt P00441, A5V); assay: A4V aggregation assay with EDTA (SOD-1 dimer loss by gel filtration); settings: 100 μM compound, 50 μM protein
T1 construct: made in house
T1 sequence (P00441 2-154 A5V limits assumed): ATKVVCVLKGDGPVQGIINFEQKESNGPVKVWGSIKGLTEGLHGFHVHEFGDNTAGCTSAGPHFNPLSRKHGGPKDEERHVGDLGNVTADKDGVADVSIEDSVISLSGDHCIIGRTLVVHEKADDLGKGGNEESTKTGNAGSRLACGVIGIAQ
Procedure: SOD-1 dimer was purified on a Superdex 75™ (16/60) gel filtration column (Pharmacia) to produce starting material for each aggregation experiment. Metal analyses were carried by inductive coupled plasma mass-spectrometry (ICP-MS). WT and G93A were nearly fully metallated, and G85R and A4V were deficient in zinc and copper, respectively.
as §1

[3] = molecular target: T2, A4V/V7F/V148F (Homo sapiens, UniProt P00441, A5V/V149F/V8F); assay: Aggregation of A4V/V7F/V148F (putative binding site disturbed); settings: binding site disturbed by V7F/V148F
T2 construct: made in house; host or cells: E. coli
T2 sequence (P00441 2-154 A5V/V8F/V149F limits assumed): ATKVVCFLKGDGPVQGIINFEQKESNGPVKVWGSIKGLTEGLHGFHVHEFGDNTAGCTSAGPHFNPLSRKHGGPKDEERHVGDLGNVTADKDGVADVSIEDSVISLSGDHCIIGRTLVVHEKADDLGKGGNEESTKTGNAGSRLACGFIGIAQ
Procedure: as §1
To investigate the effect of partially capping the cavity with hydrophobic moieties, residues V148 and V7, the sidechains of which protruded into the cavity, were mutated to phenylalanine. […] Filling cavities in protein structures with hydrophobic side chains often stabilizes the protein structure (30, 31), lysozyme being a classic example (32).
Three variants of SOD-1, in which the V7F and V148F mutations were introduced into WT, A4V and G93A, were cloned, expressed in E. coli and purified as described previously (15). Each protein was subjected to guanidine chloride (GdnCl) unfolding and fluorescence intensity (348 nm) was monitored at 25° C. WT enzyme was completely unfolded at 3.5 M GdnCl (Cm=3.2 M, where Cm is the midpoint of transition), while A4V was completely unfolded at 1.9 M GdnCl (Cm=1.51 M). […] G93A/V7F/V148F was slightly more resistant to denaturation than G93A. No significant effect of the two V→F mutations on the denaturation of WT (i.e., WT vs. V7F/V148F) could be measured. The V→F mutations stabilized both A4V and G93A against EDTA induced aggregation. […] Similarly, G93A/V7F/V148F aggregated slightly more slowly than G93A.

[4] = molecular target: T3, G93A (Homo sapiens, UniProt P00441, G94A); assay: EDTA-induced aggregation of G93A
T3 construct: made in house
T3 sequence (P00441 2-154 G94A limits assumed): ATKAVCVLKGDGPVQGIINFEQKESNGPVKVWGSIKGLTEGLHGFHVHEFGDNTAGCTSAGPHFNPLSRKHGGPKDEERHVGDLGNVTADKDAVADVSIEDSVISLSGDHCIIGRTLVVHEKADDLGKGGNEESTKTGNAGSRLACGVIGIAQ
Procedure: as §1

[5] = molecular target: T4, G85R (Homo sapiens, UniProt P00441, G86R); assay: EDTA-induced aggregation of G85R
T4 construct: made in house
T4 sequence (P00441 2-154 G86R limits assumed): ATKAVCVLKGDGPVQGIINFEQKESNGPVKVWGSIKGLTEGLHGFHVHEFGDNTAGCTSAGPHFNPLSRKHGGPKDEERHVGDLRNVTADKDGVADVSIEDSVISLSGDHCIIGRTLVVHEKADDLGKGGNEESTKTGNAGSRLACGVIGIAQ
Procedure: as §1

[6] = molecular target: T5, A4V (Homo sapiens, UniProt P00441, A5V); assay: Guanidinium chloride unfolding of A4V (fluorescence); settings: 5 μM protein, fluorescence 348 nm
T5 construct: made in house
T5 sequence (P00441 2-154 A5V limits assumed): as the sequence (P00441 2-154 A5V limits assumed) above
From the text: Equilibrium unfolding transition, as a function of GdnCl concentration, was monitored by fluorescence spectroscopy. The fluorescence measurements were done on a Hitachi f-4500 spectrofluorometer in a 1-cm cell connected to a circulation water bath. The excitation and emission wavelengths were fixed at 278 and 348 nm, respectively, after making appropriate corrections for buffer and GdnCl. The slit width was 5 nm for both monochromators. Each measurement was an average of five readings. Protein concentration used for fluorescence experiments was 5 μM. The data were analyzed directly for a two-state (N→U) transition as follows: the raw data for the GdnCl-induced denaturation studies were converted to fractions of the protein in the unfolded state (fu) as a function of GdnCl concentration using the equation: fu=Y0−(Yf+mf[GdnCl.])/(Yu+mu[GdnCl.])−(Yf+mf[GdnCl.]) where Y0 is the observed spectroscopic property, Yf and mf are the […] of the folded state baseline and Yu and mu represent the respective values of the unfolded baseline. The folded fraction was calculated as (fn=1−fu) and the equilibrium constant was determined by Keq=fu/fn. The free energy of unfolding was determined using the equation ΔG=−RT ln(Keq) where T is the temperature in Kelvin and R is the universal gas constant (1.987 cal mol−1 K−1).

Row | SMILES | inhibition of SOD aggregation by structural analogs [1] | inhibition of A4V aggregation (in words) [2] | change in the aggregation rate of A4V/V7F/V148F [3] | inhibition of G93A aggregation [4] | inhibition of G85R aggregation [5] | stabilization of A4V against GdnCl induced unfolding (expressed as ΔG) [6]
1 | O=c1[nH]c(=O)n(CCn2nc(S)c(=O)[nH]c2=O)nc1S [1,2-di-[6-Mercapto-2H-[1,2,4]triazine-3,5-dione]ethane] | most active | – | – | – | – | –
2 | O=c1[nH]cc(CSc2n[nH]c(=O)[nH]c2=O)c(=O)[nH]1 [6-{[(2,4-dioxo-1,2,3,4-tetrahydropyrimidin-5-yl)methyl]thio}-1,2,4-triazine-3,5(2H,4H)-dione] | most active | – | – | – | – | –
3 | O=c1cc(Nc2ccc(Cl)cc2)[nH]c(=O)[nH]1 [Compound 2, 6-[(4-chlorophenyl)amino]pyrimidine-2,4(1H,4H)-dione] | – | most potent A4V aggregation inhibitors; also recorded: among the most potent aggregation inhibitors | no appreciable change | among the best inhibitors | among the best inhibitors | stabilized A4V nearly to WT levels; also recorded: stabilizes the A4V dimer to an extent comparable to the difference in stability between the invariably lethal A4V and WT SOD-1
4 | O=c1[nH]nc(SCc2ccc(Cl)cc2)c(=O)[nH]1 [Compound 3, 6-[(4-chlorobenzyl)thio]1,2,4-triazine-3,5(2H,4H)-dione] | – | most potent A4V aggregation inhibitors; also recorded: among the most potent aggregation inhibitors | no appreciable change | among the best inhibitors | among the best inhibitors | stabilized A4V nearly to WT levels
5 | Oc1ccc(Br)cc1/C=N/c1ccc(F)cc1 [Compound 4, 4-bromo-2-{(E)-[(4-fluorophenyl)imino]methyl}phenol] | – | most potent A4V aggregation inhibitors; also recorded: among the most potent aggregation inhibitors | no appreciable change | among the best inhibitors | among the best inhibitors | stabilized A4V nearly to WT levels
6 | O=c1[nH]nc(SCc2ccc(F)cc2)c(=O)[nH]1 [Compound 7, 6-[(4-fluorobenzyl)thio]-1,2,4-triazine-3,5(2H,4H)-dione] | – | most potent A4V aggregation inhibitors; also recorded: among the most potent aggregation inhibitors | no appreciable change | among the best inhibitors | among the best inhibitors | stabilized A4V nearly to WT levels
7 | O=c1[nH]cc(CSCc2c[nH]c(=O)[nH]c2=O)c(=O)[nH]1 [di-{5-[1H-pyrimidine-2,4-dione]methyl}thioether] | most active | – | – | – | – | –
